For data set [1], the system named is human hair follicle dermal papilla cells. The experiment in a line: Formation and size of 3D spheroids (phase-contrast microscope). In kind it is cell-based. The conditions noted are these: 3D culture, 48 hours. The protocol: (§1) Next, for 3D spheroid culture, human hair follicle dermal papilla cells were cultured in a plate (round-bottom ultra-low attachment microplate, Corning, NY, USA) containing the stem cell medium supplemented with 5% fetal bovine serum at 37° C. under a 5% CO2 atmosphere.
Referring to the document [Higgins, C. A. et al., Exp Dermatol., 19(6), 546-548, 2010; Higgins, C. A. et al., Proc Natl Acad Sci USA., 110(49), 19679-19688, 2013; Kang, B. M. et al., J Invest Dermatol., 132(1), 237-239, 2012], a 3D spheroid culture of human hair follicle dermal papilla cells is reported to induce better formation and growth of hair follicles, compared to a 2D culture of human hair follicle dermal papilla cells. In addition, the document [Whiting, D. A., J Am Acad Dermatol., 45(3 Suppl), S81-S86, 2001; de Lacharriere, O. et al., Arch Dermatol., 137(5), 641-646, 2001; Jahoda, C. A., Exp Dermatol., 7(5), 235-248, 1998] reports that a decrease in the size of dermal papilla may cause follicle miniaturization in patients with hair loss. The Examples of the present disclosure were examined for effects of preventing hair loss and promoting hair growth by monitoring the formation and size of 3D spheroids after application to the 3D spheroid culture of Experimental Example 1.
First, the formation and size change of 3D spheroids of human hair follicle dermal papilla cells were observed. In this regard, the 3D spheroid culture of cells in Experimental Example 1 was seeded at a density of 5×10^4 cells/well into 96-well plates (96-well round-bottom ultra-low attachment microplates) and incubated for 48 hours with predetermined concentrations of Examples 1 and 2 and Comparative Example 1 (ginsenoside Rg2). Thereafter, the human dermal papilla cells were observed under a phase-contrast microscope to see whether the cells formed 3D spheroids and to measure sizes of the spheroids.

Data set [2] has the same test system. The experiment in a line: WST-1 cell viability assay. In kind it is cell-based. The conditions noted are these: 48 hours, various concentrations, vs non-treated group. The method, then: With reference to the documents [Topouzi, H. et al., Exp Dermatol., 26(6), 491-496, 2017; Higgins, C. A. et al., Proc Natl Acad Sci USA., 110(49), 19679-19688, 2013; Higgins, C. A. et al., Exp Dermatol., 19(6), 546-548, 2010], human hair follicle dermal papilla (HDP) cells were incubated in a general 2D monolayer culture manner and in a 3D spheroid culture manner as in the actual human follicle structure.
First, for 2D monolayer culture, human hair follicle dermal papilla cells were cultured in a mesenchymal stem cell medium (MSCM) (Innoprot, Bizakaia, Spain) supplemented with 5% fetal bovine serum (FBS, Thermo Fisher Scientific, Inc., Waltham, MA, USA) in an incubator maintaining the condition of 37° C. and 5% CO2. […]
First, the human hair follicle dermal papilla cells cultured in a 2D or 3D manner in Experimental Example 1 were seeded at a density of 1×10^4 cells/well into 96-well plates (96-well round-bottom ultra-low attachment microplates) and incubated at 37° C. for 24 hours in a 5% CO2 atmosphere. […] Then, 10 μl of the WST-1 solution was added to the culture and incubated for 30 min before reading absorbance at 450 nm on an iMark microplate reader (Bio-Rad Laboratories, Hercules, CA, USA). […]
On the technique in general: Tetrazolium assays rely on reduction of a dye to a coloured formazan, in cell work by metabolically active cells.

The next data set deals with LEF1. The experiment in a line: Real-time PCR mRNA expression, Wnt/β-catenin signaling. In kind it is cell-based, human. The conditions noted are these: 3D spheroid culture, 20 μg/ml, 48 hours, relative to β-actin, vs non-treated group (control). The method, then: as §1
(§2) Next, in order to confirm the luciferase activity results, mRNA analysis was performed on β-catenin, WNT5A, and LEF1, which are involved in the Wnt/β-catenin signaling. First, a 3D spheroid culture of human hair follicle dermal papilla cells was treated with Example 1 (20 μg/ml) for 48 hours, followed by RNA extraction with a TRIzol solution (Invitrogen, Thermo Fisher Scientific). From 2 μg of the RNA extract, cDNA was synthesized in the presence of M-MLV reverse transcriptase. The synthesized cDNA was mixed with HOT FIREPol EvaGreen qPCR Mix Plus solution (Solis BioDyne, Tartu, Estonia) and each of primer sets for the Wnt/β-catenin target genes β-catenin, WNT5A, and LEF1 and subjected to Step OnePlus Real-Time PCR (Applied Biosystems; Thermo Fisher Scientific). Relative to the expression of β-actin housekeeping gene, an expression level of each gene was derived. Analysis results of mRNA expressions are depicted in FIGS. 5B to 5D.
(Quantitative PCR measures a nucleic acid by following its amplification.)

The next data set deals with β-catenin. Described as above. Type of data set: cell-based, human. The conditions noted are these: 3D spheroid culture, 20 μg/ml, 48 hours, relative to β-actin, vs non-treated group (control). The protocol: as §1, §2
A further data set deals with WNT5A. The data set is described as above. Type of data set: cell-based, human. The conditions noted are these: 3D spheroid culture, 20 μg/ml, 48 hours, relative to β-actin, vs non-treated group (control). The method, then: as §1, §2
The subject of another data set is TCF/LEF. The experiment in a line: TCF/LEF luciferase reporter assay (TOPFlash/FOPFlash), Wnt/β-catenin signaling. In kind it is cell-based. The conditions noted are these: HEK293 cells, 20 μg/ml, 24 hours, vs non-treated group (control). The method, then: HEK293 cells were cultured in DMEM (Dulbecco's Modified Eagle's Medium, Thermo Fisher Scientific, Inc.) supplemented with 10% fetal bovine serum, penicillin (50 U/ml), and streptomycin (50 U/ml) under the condition of 37° C. and 5% CO2.
Whether the Wnt/β-catenin signaling is activated or not was determined using a TCF/LEF luciferase reporter plasmid (TOPFlash, Merck-Millipore, Darmstadt, Germany) designed to specifically react with the transcription factor TCF/LEF activated by β-catenin, and a reporter plasmid having a mutation caused in the promoter thereof (FOPFlash, Merck-Millipore, Darmstadt, Germany).
First, the TCF/LEF luciferase reporter plasmid (TOPFlash (TCF/LEF-wt) or FOPFlash (TCF/LEF-mut)) and a β-galactosidase plasmid were transfected into the HEK293 cells cultured in Experimental Example 1 with the aid of Lipofectamine 3000 (Invitrogen, Thermo Fisher Scientific, Inc.). After being incubated with 20 μg/ml of Example 1 for 24 hours, the transfected cells were lysed with a passive lysis buffer (Promega, Madison, WI, USA). The cell lysate thus formed was added with D-luciferin and measured for luciferase activity by Glomax 96 Microplate Luminometer (Turner Biosystem, Sunnyvale, CA, USA). β-Galactosidase activity was measured with the aid of Luminescent β-galactosidase Detection Kit II (Clontech Laboratories Inc., USA). […]
For orientation: Reporter assays use an easily measured gene product as a stand-in for the process of interest.

In the next data set the test system is FGF7. The experiment in a line: Real-time PCR mRNA expression, dermal papilla signature gene. The conditions noted are these: 3D spheroid culture, vs non-treated control. In kind it is cell-based, human. The method, then: as §1, §2
(§3) After being applied to the 3D spheroid culture of human hair follicle dermal papilla cells in Experimental Example 1, the Examples of the present disclosure were examined for the effect of preventing hair loss and promoting hair growth by monitoring mRNA expression levels of ALPL, VCAN, BMP2, and FGF7.
(§4) The mRNA expression analysis of ALPL, VCAN, BMP2, and FGF7 was carried out in the same manner as for β-catenin, WNT5A, and LEF1 in Experimental Example 3-2, with the exception of using primer sets for ALPL, VCAN, FGF7, and BMP2 instead of those for β-catenin, WNT5A, and LEF1. The mRNA expression analysis data are depicted in FIGS. 6 and 7.

The subject of the next data set is ALPL. Described as above. In kind it is cell-based, human. The conditions noted are these: 3D spheroid culture, vs non-treated control. The method, then:
as §1, §2, §3, §4

The next data set concerns BMP2. Described as above. Type of data set: cell-based, human. The conditions noted are these: 3D spheroid culture, vs non-treated control. The method, then: as §1, §2, §3, §4
A further data set concerns VCAN. Described as above. In kind it is cell-based, human. The conditions noted are these: 3D spheroid culture, vs non-treated control. The protocol: as §1, §2, §3, §4

For `CC(C)=CC/C=C(/C)[C@H]1CC[C@]2(C)[C@@H]1[C@H](O)C[C@@H]1[C@@]3(C)CC[C@H](O)C(C)(C)[C@@H]3[C@@H](O[C@@H]3O[C@H](CO)[C@@H](O)[C@H](O)[C@H]3O[C@@H]3O[C@@H](C)[C@H](O)[C@@H](O)[C@H]3O)C[C@]12C` [Example 1, ginsenoside Rg4], in data set [1] (FIG. 3C), the “number of 3D spheroids, increase compared to ginsenoside Rg2 of Comparative Example 1” value is recorded as “two to three folds” and the “size of 3D spheroids, increase compared to ginsenoside Rg2 of Comparative Example 1” value is reported as “two to three folds”. Besides, in data set [1] (vs non-treated group), the “number of 3D spheroids” value is “increase the number and size of 3D spheroids in a concentration-dependent manner”; the “size of 3D spheroids” value was “increase the number and size of 3D spheroids in a concentration-dependent manner”. Besides, the cell viability result in data set [2] (2D (monolayer) cultured cells) is “the same cell viability”. Moreover, the cell viability entry in data set [2] (3D (spheroid) cultured cells) is “the same cell viability”. In the data set on LEF1, the “mRNA expression level of LEF1” value was “two folds or more”. In the data set on β-catenin, the “mRNA expression level of β-catenin” value is “two folds or more”. For the same compound, the “mRNA expression level of WNT5A” value in the data set on WNT5A is listed as “two folds or more”. The “activation of TCF/LEF (luciferase activity)” value in the data set on TCF/LEF is “two folds or more”. The “mRNA expression level of FGF7” value in the data set on FGF7 is “increased”. The “mRNA expression level of ALPL” value in the data set with ALPL is “increased”. In addition, in the data set with BMP2, the “mRNA expression level of BMP2” value is reported as “increased”. For the same compound, the “mRNA expression level of VCAN” value with VCAN is “increased”.

Values taken from patent publication US12414976B2, “Pharmaceutical composition for preventing hair loss or promoting hair growth, comprising ginsenoside RG4 or mixture (Rgx 365) of ginsenosides Rg2, Rg4, Rg6, and Rh1 as active ingredient” (AREZ CO., LTD., priority 2019, dated 2025).
